{"source": "PubChem BioAssay AID274", "about": "(DTP/NCI, 2004)", "system": "BDF1 mice, Lewis lung carcinoma iv, survival T/C", "assay": "NCI In Vivo Anticancer Drug Screen. Data for tumor model Lewis Lung Carcinoma (intravenous) in B6D2F1 (BDF1) mice", "conditions": "endpoint: median survival time, higher = longer survival", "description": "The antitumor activity of compounds was measured in mice bearing transplantable tumors. Survival or tumor size were measured and the results are expressed as the measurement made in the treated group (T) divided by the measurement made in the vehicle treated control group (C). The tumor model used in this assay is Lewis Lung Carcinoma (intravenous) in B6D2F1 (BDF1) mice", "key": {"[1]": {"conditions": "dose: 25.0 mg/kg/injection, schedule: Q01DX009 (ip), vehicle: saline"}, "[2]": {"conditions": "dose: 50.0 mg/kg/injection, schedule: Q01DX009 (ip), vehicle: saline"}, "[3]": {"conditions": "dose: 100.0 mg/kg/injection, schedule: Q01DX009 (ip), vehicle: saline"}, "[4]": {"conditions": "dose: 200.0 mg/kg/injection, schedule: Q01DX009 (ip), vehicle: saline"}, "[5]": {"conditions": "dose: 400.0 mg/kg/injection, schedule: Q01DX009 (ip), vehicle: saline"}}, "note": "Where “and” joins values, the source holds several entries; their conditions need not be identical. Equal entries are not always repeated. Inconclusive results and toxic doses are left out."}
{"smiles": "O=NN(CCCl)C(=O)NCCCl", "values": [{"measurement": "T/C", "setting": "dose: 1.5 mg/kg/injection, schedule: Q01DX009 (ip), vehicle: Klucel (hydroxypropylcellulose) (HPC)", "result": "122 % of control"}, {"measurement": "T/C", "setting": "dose: 3.0 mg/kg/injection, schedule: Q01DX009 (ip), vehicle: Klucel (hydroxypropylcellulose) (HPC)", "result": "305 % of control"}, {"measurement": "T/C", "setting": "dose: 6.0 mg/kg/injection, schedule: Q01DX009 (ip), vehicle: Klucel (hydroxypropylcellulose) (HPC)", "result": "163 % of control"}, {"measurement": "T/C", "setting": "dose: 10.0 mg/kg/injection, schedule: Q01DX001 (ip), vehicle: saline + alcohol", "result": "116 % of control"}, {"measurement": "T/C", "setting": "dose: 12.0 mg/kg/injection, schedule: Q01DX009 (ip), vehicle: Klucel (hydroxypropylcellulose) (HPC)", "result": "304 % of control"}, {"measurement": "T/C", "setting": "dose: 20.0 mg/kg/injection, schedule: Q01DX001 (ip), vehicle: saline + alcohol", "result": "124 % of control"}, {"measurement": "T/C", "setting": "dose: 20.48 mg/kg/injection, schedule: Q01DX001 (iv), vehicle: saline + alcohol", "result": "215 % of control"}, {"measurement": "T/C", "setting": "dose: 25.6 mg/kg/injection, schedule: Q01DX001 (iv), vehicle: saline + alcohol", "result": "268 % of control"}, {"measurement": "T/C", "setting": "dose: 32.0 mg/kg/injection, schedule: Q01DX001 (iv), vehicle: saline + alcohol", "result": "267 % of control"}, {"measurement": "T/C", "setting": "dose: 40.0 mg/kg/injection, schedule: Q01DX001 (ip), vehicle: saline + alcohol", "result": "109 % of control"}, {"measurement": "T/C", "setting": "dose: 40.0 mg/kg/injection, schedule: Q01DX001 (iv), vehicle: saline + alcohol", "result": "268 % of control"}, {"measurement": "T/C", "setting": "dose: 50.0 mg/kg/injection, schedule: Q01DX001 (ip), vehicle: saline + alcohol", "result": "117 % of control"}, {"measurement": "T/C", "setting": "dose: 50.0 mg/kg/injection, schedule: Q01DX001 (iv), vehicle: saline + alcohol", "result": "268 % of control"}, {"measurement": "T/C", "setting": "dose: 62.5 mg/kg/injection, schedule: Q01DX001 (iv), vehicle: saline + alcohol", "result": "268 % of control"}]}
{"smiles": "[O-][n+]1c(CN2CCCCC2)nc2cccc3c2c1-c1ccccc1-3", "values": [{"measurement": "T/C", "setting": "dose: 12.5 mg/kg/injection, schedule: Q01DX009 (ip), vehicle: saline with Tween-80", "result": "98 % of control and 100 % of control"}, {"measurement": "T/C", "setting": "dose: 25.0 mg/kg/injection, schedule: Q01DX009 (ip), vehicle: saline with Tween-80", "result": "98 % of control and 123 % of control"}, {"measurement": "T/C", "setting": "dose: 50.0 mg/kg/injection, schedule: Q01DX009 (ip), vehicle: saline with Tween-80", "result": "105 % of control and 106 % of control"}, {"measurement": "T/C", "setting": "dose: 100.0 mg/kg/injection, schedule: Q01DX009 (ip), vehicle: saline with Tween-80", "result": "111 % of control and 116 % of control"}, {"measurement": "T/C", "setting": "dose: 200.0 mg/kg/injection, schedule: Q01DX009 (ip), vehicle: saline with Tween-80", "result": "102 % of control and 118 % of control"}, {"measurement": "T/C", "setting": "dose: 400.0 mg/kg/injection, schedule: Q01DX009 (ip), vehicle: saline with Tween-80", "result": "111 % of control"}]}
{"smiles": "NC(N)=NOCC[C@@H](N)C(=O)O", "values": [{"measurement": "T/C", "setting": "[1]", "result": "105 % of control"}, {"measurement": "T/C", "setting": "[2]", "result": "99 % of control"}, {"measurement": "T/C", "setting": "[3]", "result": "107 % of control"}, {"measurement": "T/C", "setting": "[4]", "result": "94 % of control"}, {"measurement": "T/C", "setting": "[5]", "result": "112 % of control"}]}
{"smiles": "C[Si](C)(C)O/C=C1/CCOC1=O", "values": [{"measurement": "T/C", "setting": "dose: 12.5 mg/kg/injection, schedule: Q01DX009 (ip), vehicle: saline", "result": "116 % of control"}, {"measurement": "T/C", "setting": "[1]", "result": "101 % of control"}, {"measurement": "T/C", "setting": "[2]", "result": "107 % of control"}, {"measurement": "T/C", "setting": "[3]", "result": "108 % of control"}, {"measurement": "T/C", "setting": "[4]", "result": "93 % of control"}, {"measurement": "T/C", "setting": "[5]", "result": "99 % of control"}]}
{"smiles": "Nc1ncnc2nc[nH]c12", "values": [{"measurement": "T/C", "setting": "dose: 32.0 mg/kg/injection, schedule: Q01DX009 (ip), vehicle: Klucel (hydroxypropylcellulose) (HPC)", "result": "99 % of control"}, {"measurement": "T/C", "setting": "dose: 64.0 mg/kg/injection, schedule: Q01DX009 (ip), vehicle: Klucel (hydroxypropylcellulose) (HPC)", "result": "99 % of control"}, {"measurement": "T/C", "setting": "dose: 128.0 mg/kg/injection, schedule: Q01DX009 (ip), vehicle: Klucel (hydroxypropylcellulose) (HPC)", "result": "98 % of control"}]}
{"smiles": "O=C1C=CC(=Nc2ccc3c(c2)C(Br)c2ccccc2-3)O1", "note": "(stereo not given)", "values": [{"measurement": "T/C", "setting": "dose: 5.0 mg/kg/injection, schedule: Q01DX009 (ip), vehicle: saline with Tween-80", "result": "115 % of control"}, {"measurement": "T/C", "setting": "dose: 10.0 mg/kg/injection, schedule: Q01DX009 (ip), vehicle: saline with Tween-80", "result": "111 % of control"}, {"measurement": "T/C", "setting": "dose: 20.0 mg/kg/injection, schedule: Q01DX009 (ip), vehicle: saline with Tween-80", "result": "112 % of control"}]}
{"smiles": "O=CC(O)C(O)C(O)C(O)C(=O)O.[NH-]C1CCCCC1[NH-].[Pt+2]", "note": "(stereo not given)", "values": [{"measurement": "T/C", "setting": "dose: 0.1 mg/kg/injection, schedule: Q01DX009 (ip), vehicle: suspension in saline", "result": "92 % of control"}, {"measurement": "T/C", "setting": "dose: 0.2 mg/kg/injection, schedule: Q01DX009 (ip), vehicle: suspension in saline", "result": "92 % of control"}, {"measurement": "T/C", "setting": "dose: 0.39 mg/kg/injection, schedule: Q01DX009 (ip), vehicle: suspension in saline", "result": "104 % of control"}, {"measurement": "T/C", "setting": "dose: 0.78 mg/kg/injection, schedule: Q01DX009 (ip), vehicle: suspension in saline", "result": "112 % of control"}, {"measurement": "T/C", "setting": "dose: 1.56 mg/kg/injection, schedule: Q01DX009 (ip), vehicle: suspension in saline", "result": "108 % of control"}]}
{"smiles": "CC1CCC2(OC1)OC1CC3C4CCC5CC(O)CCC5(C)C4CCC3(C)C1C2C", "note": "(stereo not given)", "values": [{"measurement": "T/C", "setting": "dose: 20.0 mg/kg/injection, schedule: Q01DX009 (ip), vehicle: Klucel (hydroxypropylcellulose) (HPC)", "result": "91 % of control"}]}
{"smiles": "CCC1(O)CC2CN(CCc3c([nH]c4ccccc34)C(C(=O)OC)(c3cc4c(cc3OC)N(C)C3C(O)(C(=O)NCCSSCCNC(=O)C5(O)C(O)C6(CC)C=CCN7CCC8(c9cc(C%10(C(=O)OC)CC%11CN(CCc%12c%10[nH]c%10ccccc%12%10)CC(O)(CC)C%11)c(OC)cc9N(C)C58)C76)C(O)C5(CC)C=CCN6CCC43C65)C2)C1", "note": "(stereo not given)", "values": [{"measurement": "T/C", "setting": "dose: 0.39 mg/kg/injection, schedule: Q01DX009 (ip), vehicle: saline", "result": "93 % of control"}, {"measurement": "T/C", "setting": "dose: 0.65 mg/kg/injection, schedule: Q01DX009 (ip), vehicle: saline", "result": "93 % of control"}]}
